Test results: publication PMC11892739, “Site-specific molecular glues for the 14-3-3/Tau pS214 protein–protein interaction via reversible covalent imine tethering” (RSC Medicinal Chemistry, 2025)

Molecular target: T1, 14-3-3ζ/p53 peptide (Homo sapiens, UniProt P63104)
T1 construct: made in house; host or cells: NiCo21 (DE3) E. coli
Test: FA peptide screen, 14-3-3ζ titration to client peptide and compound: p53
Assay type: binding
Conditions: 250 μM compound, 100 nM peptide; +1 Glu
Experimental: Since the hub protein 14-3-3 binds to hundreds of phosphoprotein partners, selectivity of PPI stabilization is a major challenge. The interplay of chemical reactivity, and the topology and functionality of the composite binding pocket shaped by 14-3-3 and Tau potentially provide entries towards selective stabilization. […] Here, 14-3-3ζ was titrated to a constant concentration of client peptide (100 nM) and compound (250 μM) to determine the SF250μM values for the particular 14-3-3 PPI. A variety of 14-3-3 binding proteins was represented in this client panel whereby the size and hydrophobicity of the +1 amino acid were varied. […]
chromatography (HisTrap high performance cartridges, Cytiva). […] Dialyzed protein was concentrated to ∼40 mg/mL, analyzed by Q -Tof LC/MS, and aliquots were flash -frozen for storage at −80 °C. […]
0.1% (v/v) Tween20, 0.1% (w/v) BSA). […] Measurements were performed directly after plate preparation, using a Tecan SPARK plate reader at room temperature ( λex: 485±20 nm; λem: 535±25 nm; mirror: automatic; flashes: 30; settle time: 1 ms; gain: optimal; Z -position: calculated from well). […] All data were analyzed using GraphPad Prism (10.0.1) and fitted with a four -parameter logistic model (4PL) to determine binding affinities (dissociation constant, KD). […]
Fluorescence Anisotropy – peptide screen […]

T1 sequence (P63104 whole entry, other chains not shown): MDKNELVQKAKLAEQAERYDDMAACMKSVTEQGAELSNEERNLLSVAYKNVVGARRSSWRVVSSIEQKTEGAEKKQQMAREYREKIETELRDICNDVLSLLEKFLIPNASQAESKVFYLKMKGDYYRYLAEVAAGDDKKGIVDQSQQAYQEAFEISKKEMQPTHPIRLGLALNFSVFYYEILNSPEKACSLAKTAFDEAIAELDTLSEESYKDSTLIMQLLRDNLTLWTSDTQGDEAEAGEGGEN

CCc1ccc(-c2nccn2-c2ccc(C=O)c(Br)c2)cc1 [Compound 18]
stabilization of 14-3-3/p53 peptide (in words): did not show significant stabilizing activity
